According to patent publication US20110182992A1, “PEPTIDES AND PEPTIDE MIMETICS TO TREAT PATHOLOGIES ASSOCIATED WITH EYE DISEASE” (priority 2008, published 2011):

Columns and labels:
ApoE null mice [1] = experiment: HDL function after D-4F and/or statin in the drinking water; assay type: in vivo, mouse; details: 0.05 mg/ml in the drinking water for 24 hours
C57Bl/6J-apoE null mice = experiment: Intravitreal L-4F: electron microscopy of Bruch's membrane of aged C57Bl/6J-apoE null mice; assay type: in vivo, mouse
From the text: In every other RPE cell big lipid vacuoles (asterisks) are found, a sign of stress and beginning degeneration. PR: photo receptors; CC: choriocapillaris: EC: vascular endothelial cell of the choriocapillaris.
The membrane is slightly thickened with multiple translucent lipid vacuoles. A few are marked with asterisks. EC: vascular endothelial cell of choriocapillaris.
An effective clearance of this lipid debris via an ApoA-I mimetic peptide (L-4F) could prevent early AMD-like degeneration.
L-4F was injected directly into the vitreous cavity of right eyes of 10 eight month old C57Bl/6J-apoE null mice. A single dose of 3 μl was injected with a L-4F concentration of 400 μg/ml. All left eyes were untreated throughout the study and thus be served as controls. The animals were then sacrificed 21 days after the injection and the eyes were immediately enucleated and fixed. Eyes then were processed for electron microscopy (EM).

[2] = test system: mice fed an atherogenic diet; details: 20 μg daily injected; cited from earlier work
ApoE null mice [3] = experiment: Ability of LDL from apoE null mice given oral peptides to induce monocyte chemotactic activity (LDL susceptibility to oxidation); assay type: in vivo, mouse; details: added to the drinking water, 24 hrs
From the text: FIG. 5 illustrates the effect of oral apo A-1 peptide mimetic and apoJ peptide on LDL susceptibility to oxidation. The values are the mean±SD of the number of migrated monocytes in 9 high power fields from each of quadruple assay wells. Asterisks indicate significant difference (p<0.05) as compared to No Peptide LDL.
FIG. 5 illustrates the effect of oral apo A-1 peptide mimetic and apoJ peptide on LDL susceptibility to oxidation. […] After 24 hrs blood was collected from the mice shown in FIG. 4, plasma fractionated by FPLC and fractions containing LDL (designated as mLDL for murine LDL) were pooled and LDL susceptibility to oxidation as determined by induction of monocyte chemotactic activity was determined. For the assay controls the culture wells received no lipoproteins (no additions), mLDL alone (at 200 μg cholesterol/ml), or mLDL+ standard normal human HDL (designated as Cont. h HDL, 350 μg HDL cholesterol).
Murine LDL, mLDL, from mice that received the D-4F (F mLDL) or those that received the apoJ peptide (J mLDL) were added to artery wall cell cultures.

[4] = test system: human aortic endothelial cells; experiment: Prevention of LDL-induced monocyte chemotactic activity, co-incubation; assay type: cell-based; details: co-incubation with control human LDL 200 μg protein/ml, overnight
ApoE null mice [5] = experiment: Protection against LDL-induced monocyte chemotactic activity by HDL from apo E null mice given oral peptides; assay type: in vivo, mouse
From the text: FIG. 4 illustrates protection against LDL-induced monocyte chemotactic activity by HDL from apo E null mice given oral peptides. The values are the mean±SD of the number of migrated monocytes in 9 high power fields from each of quadruple assay wells. Asterisks indicate significant difference (p<0.05) as compared to No Peptide mHDL.
After 24 hrs blood was collected, plasma fractionated by FPLC and fractions containing LDL (designated as mLDL for murine LDL) and fractions containing HDL (designated as mHDL) were separately pooled and HDL protective capacity against LDL oxidation as determined by LDL-induced monocyte chemotactic activity was determined. For the assay controls the culture wells received no lipoproteins (no additions), mLDL alone (at 200 μg cholesterol/ml), or mLDL+ standard normal human HDL (designated as Cont. h HDL, at 350 μg HDL cholesterol/ml).
For testing the murine HDL, mLDL together with murine HDL (+F mHDL or +J mHDL) were added to artery wall cell cultures. […] The murine HDL was used at 100µg cholesterol/ml.

LDL receptor null mice = experiment: HDL protective capacity in LDL receptor null mice given peptide in drinking water; assay type: in vivo; details: 0.25 or 0.5 mg per ml of drinking water, 24 or 48 hrs, mouse HDL at 100 μg/ml
Method: FIG. 3 illustrates the effect of apo J peptide mimetics on HDL protective capacity in LDL receptor null mice. The values are the mean±SD of the number of migrated monocytes in 9 high power fields from each of quadruple assay wells.
D-4F designated as F, or the apoJ peptide made from D amino acids (D-J336, designated as J) was added to the drinking water of LDL receptor null mice (4 per group) at 0.25 or 0.5 mg per ml of drinking water. After 24- or 48-hrs blood was collected from the mice and their HDL was isolated and tested for its ability to protect against LDL-induced monocyte chemotactic activity. Assay controls included culture wells that received no lipoproteins (no addition), or control human LDL alone (designated as LDL, 200µg cholesterol/ml), or control LDL+ control human HDL (designated as +HDL, 350µg HDL cholesterol). For testing the mouse HDL, the control LDL was added together with mouse HDL (+F HDL or +J HDL) to artery wall cell cultures. The mouse HDL was added at 100 μg cholesterol/ml respectively.

ApoE null mice [6] = experiment: Protection against PAPC oxidation by HPODE and induction of monocyte chemotactic activity by HDL from apo E null mice given oral peptides; assay type: in vivo, mouse; details: added to the drinking water, 24 hrs; murine HDL 100 μg cholesterol/ml
Method: The values are the mean±SD of the number of migrated monocytes in 9 high power fields from each of quadruple assay wells. Asterisks indicate significant difference (p<0.05) as compared to No Peptide mHDL.
After 24 hrs blood was collected, plasma fractionated by FPLC and fractions containing HDL (designated as mHDL) were pooled and HDL protective capacity against PAPC oxidation as determined by the induction of monocyte chemotactic activity was determined. For the assay controls the culture wells received no lipoproteins (no additions), the phospholipid PAPC at 20µg/ml+HPODE, at 1.0 μg/ml, or PAPC+HPODE plus standard normal human HDL (at 350 μg HDL cholesterol/ml and designated as +Cont. h HDL).
For testing the murine HDL, PAPC+HPODE together with murine HDL (+F mHDL or +J mHDL) were added to artery wall cell cultures. […] The murine HDL was used at 100 μg cholesterol/ml.

PON1 = details: added to the drinking water, 24 hrs
Method: The values are the mean±SD of readings from quadruple plasma aliquots.
After 24 hrs blood was collected and plasma was assayed for PON1 activity.

[7] = test system: human aortic endothelial cells; experiment: Prevention of LDL-induced monocyte chemotactic activity by pre-treatment of artery wall cells; assay type: cell-based; details: 6 hrs pre-incubation with peptide, wash, then control human LDL 200 μg protein/ml overnight
Method: FIG. 2 illustrates the prevention of LDL-induced monocyte chemotactic activity by pre-treatment of artery wall cells with D-J336 as compared to D-4F. The data are mean±SD of the number of migrated monocytes in nine high power fields in quadruple cultures.
FIG. 2 illustrates a comparison of the effect of D-4F with the effect of D-J336 on the prevention of LDL induced monocyte chemotactic activity in a pre-incubation. Human aortic endothelial cells were pre-incubated with D-J336 or D-4F at 4, 2, and 1µg/ml for DJ336 or 100, 50, 25, and 12.5 μg/ml for D-4F for 6 hrs. The cultures were then washed and were incubated with medium alone (no addition), or with control human LDL (200 μg protein/ml), or with control human LDL+ control human HDL (350 μg HDL protein/ml) as assay controls. The wells that were pre-treated with peptides received the control human LDL at 200 μg protein/ml. Following overnight incubation, the supernatants were assayed for monocyte chemotactic activity.

[8] = Association with pre-beta HDL / HDL and clearance from the circulation after an oral dose; details: mouse, in vivo
mice = experiment: LDL isolated after injection of apo A-I into mice: oxidation by human artery wall cells; assay type: in vivo, mouse
From the text: (§1) We discovered that normal HDL inhibits three steps in the formation of mildly oxidized LDL. […] These seeding molecules were required for cocultures of human artery wall cells to be able to oxidize LDL and for the LDL to induce the artery wall cells to produce monocyte chemotactic activity.

human volunteers = experiment: LDL isolated after infusion of apo A-I into humans: oxidation by human artery wall cells; assay type: in vivo
From the text: as §1

human LDL = experiment: Treating human LDL in vitro: removal of seeding molecules
From the text: as §1

Compound: CC(C)c1c(C(=O)Nc2ccccc2)c(-c2ccccc2)c(-c2ccc(F)cc2)n1CC[C@@H](O)C[C@@H](O)CC(=O)O [atorvastatin, reference compound]
- HDL function, statin alone (ApoE null mice [1]): did not improve HDL function

Compound: Ac-D-W-F-K-A-F-Y-D-K-V-A-E-K-F-K-E-A-F-NH2 (Ac-DWFKAFYDKVAEKFKEAF-NH2) [Peptide L-4F]
- Bruch's membrane structure, electron microscopy of treated eyes (C57Bl/6J-apoE null mice; magnification 5,000×): regular and uniform Bruch's membrane structure
- lipid droplets in RPE cells, electron microscopy of treated eyes (C57Bl/6J-apoE null mice; magnification 5,000×): none of the RPE cells showed lipid droplets
- translucent lipid vacuoles in Bruch's membrane, electron microscopy of a treated eye (C57Bl/6J-apoE null mice; magnification 20,000×): no translucent lipid vacuoles shown
- Bruch's membrane and RPE morphology and lipid content of treated eyes compared to untreated eyes (EM) (C57Bl/6J-apoE null mice; single intravitreal 3 μl of 400 μg/ml, 21 days, EM of 2 mice): significant improvement in Bruch's membrane and RPE morphology as well as lipid content

Compound: Ac-D-W-L-K-A-F-Y-D-K-V-F-E-K-F-K-E-F-F-NH2 (Ac-DWLKAFYDKVFEKFKEFF-NH2) [Peptide 5F]
- LDL from PBS-injected mice compared with LDL from peptide-injected mice: oxidation and induction of monocyte chemotactic activity [2]: more readily oxidized and more readily induced monocyte chemotactic activity than LDL taken from mice fed the same diet but injected with 20µg daily of peptide 5F

Compound: Ac-LLEQLNEQFNWVSRLANLTQGE-NH2 [D-J336]
- potency in rendering LDL from apo E null mice resistant to oxidation by human artery wall cells (induction of monocyte chemotactic activity) (ApoE null mice [3]): slightly more potent than D-4F
- in vitro concentration that prevents LDL-induced monocyte chemotactic activity by human artery wall cells, relative to the concentration required for the D-4F peptide [4]: 10 to 25 times less
- activity of murine HDL against LDL-induced monocyte chemotactic activity (ApoE null mice [5]; ApoE null mice, peptide in drinking water 24 hrs, murine HDL at 100 μg/ml): as active as 350µg/ml of normal human HDL
- potency in enhancing HDL protective capacity in apo E null mice (ApoE null mice [5]; added to the drinking water, 24 hrs): as potent as D-4F
- activity of mouse HDL in preventing control LDL from inducing artery wall cells to produce monocyte chemotactic activity (LDL receptor null mice): as active as 350 μg/ml of control human HDL
- potency in causing HDL to inhibit oxidation of PAPC by HPODE in a human artery wall co-culture (monocyte chemotactic activity) (ApoE null mice [6]): as potent as D-4F
- potency in increasing the paraoxonase activity of apo E null mice (PON1): at least as potent as D-4F
- potency in preventing LDL oxidation by artery wall cells in vitro, compared with D-4F [7]: 10-25 times more potent

Compound: Ac-LVGRQLEEFL-NH2 [D-[113-122]apoJ]
- association with pre-beta HDL and HDL [8]: slowly associates with pre-beta HDL and to a lesser extent with HDL
- time it remains associated with the HDL fractions (pre-beta HDL, HDL) [8]: at least 36 hours

Compound: apo A-I: apolipoprotein A-I, the major protein of HDL
- oxidation of LDL isolated after injection, by human artery wall cells, and induction of monocyte chemotactic activity (mice): resistant to oxidation by human artery wall cells and did not induce monocyte chemotactic activity
- oxidation of LDL isolated after infusion, by human artery wall cells, and induction of monocyte chemotactic activity (human volunteers): resistant to oxidation by human artery wall cells and did not induce monocyte chemotactic activity
- removal of seeding molecules from human LDL in vitro (human LDL): removed seeding molecules from the LDL that included HPODE and HPETE
